Test results reported in patent US8877759B2, “Aminopyrazines as ATR kinase inhibitors” (Vertex Pharnaceuticals Incorporated, priority 2011, dated 2014).
pKi: −log10 of the molar value.

target: T1, full-length ATR (Homo sapiens, UniProt Q13535); assay: ATR Inhibition Assay (radioactive-phosphate incorporation); format: biochemical; conditions: not given
T1 construct: Assays were carried out at 25° C. in the presence of 5 nM full-length ATR
Protocol: Compounds were screened for their ability to inhibit ATR kinase using a radioactive-phosphate incorporation assay. Assays were carried out in a mixture of 50 mM Tris/HCl (pH 7.5), 10 mM MgCl2 and 1 mM DTT.
Assays were carried out at 25° C. in the presence of 5 nM full-length ATR. An assay stock buffer solution was prepared containing all of the reagents listed above, with the exception of ATP and the test compound of interest. […] The plate was pre-incubated for 10 minutes at 25° C. and the reaction initiated by addition of 15 μL [γ-33P]ATP (final concentration 10 μM).
The reaction was stopped after […] by the addition of 30 μL 0.1M phosphoric acid containing 2 mM ATP. A multiscreen phosphocellulose filter 96-well plate (Millipore, Cat no. MAPHN0B50) was pretreated with 100 μL 0.2M phosphoric acid prior to the addition of 45 μL of the stopped assay mixture. The plate was washed with 5×200 μL 0.2M phosphoric acid.
After removing mean background values for all of the data points, Ki(app) data were calculated from non-linear regression analysis of the initial rate data using the Prism software package (GraphPad Prism version 3.0cx for Macintosh, GraphPad Software, San Diego Calif., USA).

T1 sequence (Q13535 whole entry): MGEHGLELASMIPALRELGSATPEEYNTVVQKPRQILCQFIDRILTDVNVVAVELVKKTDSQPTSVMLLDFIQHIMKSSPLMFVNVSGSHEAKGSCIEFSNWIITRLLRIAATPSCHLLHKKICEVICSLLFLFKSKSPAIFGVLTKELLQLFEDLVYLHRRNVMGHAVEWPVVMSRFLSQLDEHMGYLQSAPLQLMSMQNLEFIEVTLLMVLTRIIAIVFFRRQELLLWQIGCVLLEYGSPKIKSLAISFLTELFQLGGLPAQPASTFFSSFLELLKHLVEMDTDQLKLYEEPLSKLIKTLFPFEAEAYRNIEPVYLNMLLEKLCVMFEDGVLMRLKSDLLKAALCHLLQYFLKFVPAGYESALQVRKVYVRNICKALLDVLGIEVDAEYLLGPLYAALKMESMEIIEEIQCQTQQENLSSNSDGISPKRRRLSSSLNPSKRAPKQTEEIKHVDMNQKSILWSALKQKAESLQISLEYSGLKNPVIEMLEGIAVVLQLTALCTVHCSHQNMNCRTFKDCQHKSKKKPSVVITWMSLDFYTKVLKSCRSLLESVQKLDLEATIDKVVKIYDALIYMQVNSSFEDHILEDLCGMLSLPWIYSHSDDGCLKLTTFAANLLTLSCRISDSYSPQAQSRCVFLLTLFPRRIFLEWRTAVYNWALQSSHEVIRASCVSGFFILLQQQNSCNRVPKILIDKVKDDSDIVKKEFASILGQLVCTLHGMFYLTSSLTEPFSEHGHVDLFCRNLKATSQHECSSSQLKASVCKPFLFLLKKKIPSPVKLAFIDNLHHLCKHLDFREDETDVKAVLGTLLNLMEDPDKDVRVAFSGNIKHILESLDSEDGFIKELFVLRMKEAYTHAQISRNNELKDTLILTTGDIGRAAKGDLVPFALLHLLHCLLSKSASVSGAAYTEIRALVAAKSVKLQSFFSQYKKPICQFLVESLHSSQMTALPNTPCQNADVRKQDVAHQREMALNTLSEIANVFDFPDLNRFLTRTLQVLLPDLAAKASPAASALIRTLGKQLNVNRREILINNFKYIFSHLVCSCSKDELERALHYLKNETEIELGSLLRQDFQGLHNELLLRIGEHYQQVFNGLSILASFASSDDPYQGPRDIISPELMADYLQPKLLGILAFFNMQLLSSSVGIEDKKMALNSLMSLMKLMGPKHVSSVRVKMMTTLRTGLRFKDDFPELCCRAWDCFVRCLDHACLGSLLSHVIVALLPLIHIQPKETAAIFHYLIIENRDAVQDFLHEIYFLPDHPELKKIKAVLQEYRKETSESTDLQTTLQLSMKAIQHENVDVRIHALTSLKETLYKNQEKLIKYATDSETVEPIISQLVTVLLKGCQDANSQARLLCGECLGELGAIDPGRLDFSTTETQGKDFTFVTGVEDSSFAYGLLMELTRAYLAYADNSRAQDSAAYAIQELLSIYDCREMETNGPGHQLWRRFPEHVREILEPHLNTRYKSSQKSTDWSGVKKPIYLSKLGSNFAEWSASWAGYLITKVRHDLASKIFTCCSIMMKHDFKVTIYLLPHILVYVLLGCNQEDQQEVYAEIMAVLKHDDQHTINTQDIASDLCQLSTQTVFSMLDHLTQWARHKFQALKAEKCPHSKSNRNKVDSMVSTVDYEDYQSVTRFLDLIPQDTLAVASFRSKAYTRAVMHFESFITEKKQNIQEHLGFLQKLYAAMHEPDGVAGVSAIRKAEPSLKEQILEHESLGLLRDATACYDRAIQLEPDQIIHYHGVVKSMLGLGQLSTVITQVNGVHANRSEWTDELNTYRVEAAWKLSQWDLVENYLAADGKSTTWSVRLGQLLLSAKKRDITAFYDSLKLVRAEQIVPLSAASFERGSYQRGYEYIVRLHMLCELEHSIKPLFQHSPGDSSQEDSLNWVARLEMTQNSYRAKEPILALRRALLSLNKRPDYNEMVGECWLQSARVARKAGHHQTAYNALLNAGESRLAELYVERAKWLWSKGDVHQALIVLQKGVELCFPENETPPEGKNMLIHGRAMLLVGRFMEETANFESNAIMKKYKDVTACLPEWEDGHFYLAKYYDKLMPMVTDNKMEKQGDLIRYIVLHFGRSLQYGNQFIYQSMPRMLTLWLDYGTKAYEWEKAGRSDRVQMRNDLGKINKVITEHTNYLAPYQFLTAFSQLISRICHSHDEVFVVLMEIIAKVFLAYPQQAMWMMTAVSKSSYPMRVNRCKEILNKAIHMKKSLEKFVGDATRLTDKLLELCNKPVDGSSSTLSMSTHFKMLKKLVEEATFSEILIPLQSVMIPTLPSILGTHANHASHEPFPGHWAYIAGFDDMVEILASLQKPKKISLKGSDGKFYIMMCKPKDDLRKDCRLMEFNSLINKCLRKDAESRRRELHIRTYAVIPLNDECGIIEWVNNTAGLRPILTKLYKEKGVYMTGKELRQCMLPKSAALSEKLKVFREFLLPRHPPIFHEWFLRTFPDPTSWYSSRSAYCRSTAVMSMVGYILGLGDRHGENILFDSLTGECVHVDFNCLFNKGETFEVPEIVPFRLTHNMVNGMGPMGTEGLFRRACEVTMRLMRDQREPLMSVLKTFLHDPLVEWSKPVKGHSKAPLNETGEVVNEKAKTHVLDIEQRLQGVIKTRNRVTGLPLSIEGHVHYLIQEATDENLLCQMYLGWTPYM

Row | Compound | pKi
1 | CCCN(CCN(C)C)C(=O)c1cc(-c2cnc(N)c(-c3cc(-c4ccccc4)no3)n2)ccn1 [Compound I-91] | 7.70 to 8.30
2 | CC(C)(C#N)c1cc(-c2cnc(N)c(-c3nnc(-c4cc5c(s4)CCNC5)o3)n2)ccn1 [Compound I-96] | > 9.00
3 | CNCCNC(=O)C(C)(C)c1cc(-c2cnc(N)c(-c3cc(-c4ccccc4)no3)n2)ccn1 [Compound I-65] | 7.70 to 8.30
4 | CC(C)(C#N)c1cc(-c2cnc(N)c(-c3nnc(-c4ccc(C5CCCN5)cc4)o3)n2)ccn1 (centres unmarked) [Compound I-79] | > 9.00
5 | CC(C)(C#N)c1cc(-c2cnc(N)c(-c3nnc(-c4ccc(N5CCCC5CN)cc4)o3)n2)ccn1 (centres unmarked) [Compound I-68] | 7.70 to 8.30
6 | CC(C)(C#N)c1cc(-c2cnc(N)c(-c3nnc(-c4cccc(N5CCC(N)CC5)c4)o3)n2)ccn1 [Compound I-125] | 7.70 to 8.30
7 | CC(N)CNc1ccc(-c2nnc(-c3nc(-c4ccnc(C(C)(C)C#N)c4)cnc3N)o2)cc1 (centres unmarked) [Compound I-130] | > 9.00
8 | CC(C)(C#N)c1cc(-c2cnc(N)c(-c3nnc(-c4ccc(F)cc4NCCN)o3)n2)ccn1 [Compound I-70] | > 9.00
9 | COCCNC(=O)C(C)(C)c1cc(-c2cnc(N)c(-c3cc(-c4ccccc4)no3)n2)ccn1 [Compound I-38, 2-[4-[5-amino-6-(3-phenylisoxazol-5-yl)pyrazin-2-yl]-2-pyridyl]-N-(2-methoxyethyl)-2-methyl-propanamide] | 7.70 to 8.30
10 | CC(C)(C#N)c1cc(-c2cnc(N)c(-c3nnc(-c4ccc(OCCN5CCCC5)cc4)o3)n2)ccn1 [Compound I-69] | > 9.00
11 | CN(C)CCNC(=O)C(C)(C)c1cc(-c2cnc(N)c(-c3cc(-c4ccccc4)no3)n2)ccn1 [Compound I-85] | 7.70 to 8.30

Next, values leading:

Row | pKi | Compound
12 | > 9.00 | CNCc1ccc(-c2cc(-c3nc(-c4ccnc(C(C)S(C)(=O)=O)c4)cnc3N)on2)cc1 (centres unmarked) [Compound I-15, 3-[3-[4-(methylaminomethyl)phenyl]isoxazol-5-yl]-5-[2-(1-methylsulfonylethyl)-4-pyridyl]pyrazin-2-amine]
13 | > 9.00 | CC(C)(C#N)c1cc(-c2cnc(N)c(-c3cc(-c4ccccc4)no3)n2)ccn1 [Compound I-5, 2-[4-[5-amino-6-(3-phenylisoxazol-5-yl)pyrazin-2-yl]-2-pyridyl]-2-methyl-propanenitrile]
14 | > 9.00 | CC(C)(C#N)c1cc(-c2cnc(N)c(-c3nnc(-c4ccc(NCCN5CCOCC5)cc4)o3)n2)ccn1 [Compound I-116]
15 | 7.70 to 8.30 | Cc1ccccc1-c1cc(-c2nc(-c3ccnc(C4(C#N)CCNCC4)c3)cnc2N)on1 [Compound I-25, 4-[4-[5-amino-6-[3-(o-tolyl)isoxazol-5-yl]pyrazin-2-yl]-2-pyridyl]piperidine-4-carbonitrile]
16 | > 9.00 | N#CC1(c2cc(-c3cnc(N)c(-c4cc(-c5ccc(CN[C@H]6CCOC6)cc5)no4)n3)ccn2)CCOCC1 [Compound I-42, 4-[4-[5-amino-6-[3-[4-[[[(3S)-tetrahydrofuran-3-yl]amino]methyl]phenyl]isoxazol-5-yl]pyrazin-2-yl]-2-pyridyl]tetrahydropyran-4-carbonitrile]
17 | > 9.00 | N#CC1(c2cc(-c3cnc(N)c(-c4cc(-c5ccc(CN[C@H]6CCOC6)cc5)no4)n3)ccn2)CCC1 [Compound I-35, 1-[4-[5-amino-6-[3-[4-[[[(3S)-tetrahydrofuran-3-yl]amino]methyl]phenyl]isoxazol-5-yl]pyrazin-2-yl]-2-pyridyl]cyclobutanecarbonitrile]
18 | > 9.00 | CCC(C#N)(CC)c1cc(-c2cnc(N)c(-c3cc(-c4ccc(CNC)cc4)no3)n2)ccn1 [Compound I-2, 2-[4-[5-amino-6-[3-[4-(methylaminomethyl)phenyl]isoxazol-5-yl]pyrazin-2-yl]-2-pyridyl]-2-ethyl-butanenitrile]
19 | > 9.00 | CC(C)(C#N)c1cc(-c2cnc(N)c(-c3cc(-c4ccc(CNC5CCCOC5)cc4)no3)n2)ccn1 (centres unmarked) [Compound I-93]
20 | 7.70 to 8.30 | N#CC1(c2cc(-c3cnc(N)c(-c4nnc(-c5ccccc5)o4)n3)ccn2)CCNCC1 [Compound I-94]
21 | > 9.00 | CNCc1ccc(-c2cc(-c3nc(-c4ccnc(C(C)(C)C(=O)N(C)C)c4)cnc3N)on2)cc1 [Compound I-11, 2-[4-[5-amino-6-[3-[4-(methylaminomethyl)phenyl]isoxazol-5-yl]pyrazin-2-yl]-2-pyridyl]-N,N,2-trimethyl-propanamide]
22 | > 9.00 | CNCc1ccc(-c2cc(-c3nc(-c4ccnc(C(C)(C)C(N)=O)c4)cnc3N)on2)cc1 [Compound I-10, 2-[4-[5-amino-6-[3-[4-(methylaminomethyl)phenyl]isoxazol-5-yl]pyrazin-2-yl]-2-pyridyl]-2-methyl-propanamide]
23 | > 9.00 | CNCc1ccc(-c2cc(-c3nc(-c4ccnc(C5(C#N)CCOCC5)c4)cnc3N)on2)cc1 [Compound I-9, 4-[4-[5-amino-6-[3-[4-(methylaminomethyl)phenyl]isoxazol-5-yl]pyrazin-2-yl]-2-pyridyl]tetrahydropyran-4-carbonitrile]

same assay, conditions: Ki(app); 5 nM full-length ATR, 10 μM [γ-33P]ATP, 800 μM target peptide, 25° C.

Row | pKi | Compound | ATR Ki
24 |  | CC(C)(C#N)c1cc(-c2cnc(N)c(-c3nnc(-c4ccc(O[C@H]5CCNC5)cc4)o3)n2)ccn1 [Compound I-106] | +++ (Compounds with a Ki value >5 nM but ≦1 nM are marked with “+++.”)
25 |  | CC(C)(C#N)c1cc(-c2cnc(N)c(-c3nnc(-c4ccc5c(c4)CCNC5)o3)n2)ccn1 [Compound I-52, 2-[4-[5-amino-6-[5-(1,2,3,4-tetrahydroisoquinolin-6-yl)-1,3,4-oxadiazol-2-yl]pyrazin-2-yl]-2-pyridyl]-2-methyl-propanenitrile] | +++ (Compounds with a Ki value >5 nM but ≦1 nM are marked with “+++.”)
26 |  | COc1ccccc1-c1cc(-c2nc(-c3ccnc(C4(C#N)CCNCC4)c3)cnc2N)on1 [Compound I-27, 4-[4-[5-amino-6-[3-(2-methoxyphenyl)isoxazol-5-yl]pyrazin-2-yl]-2-pyridyl]piperidine-4-carbonitrile] | +++ (Compounds with a Ki value >5 nM but ≦1 nM are marked with “+++.”)
27 |  | Cc1ccsc1-c1cc(-c2nc(-c3ccnc(C4(C#N)CCNCC4)c3)cnc2N)on1 [Compound I-24, 4-[4-[5-amino-6-[3-(3-methyl-2-thienyl)isoxazol-5-yl]pyrazin-2-yl]-2-pyridyl]piperidine-4-carbonitrile] | +++ (Compounds with a Ki value >5 nM but ≦1 nM are marked with “+++.”)
28 | > 9.00 | CC(C)(C#N)c1cc(-c2cnc(N)c(-c3cc(-c4ccc(CN[C@H]5CCOC5)cc4)no3)n2)ccn1 [Compound I-19, 2-[4-[5-amino-6-[3-[4-[[[(3S)-tetrahydrofuran-3-yl]amino]methyl]phenyl]isoxazol-5-yl]pyrazin-2-yl]-2-pyridyl]-2-methyl-propanenitrile] | 
29 |  | CC(C)(C#N)c1cc(-c2cnc(N)c(-c3nnc(-c4ccc5c(c4)CNC5)o3)n2)ccn1 [Compound I-81] | +++ (Compounds with a Ki value >5 nM but ≦1 nM are marked with “+++.”)
30 |  | N#CC1(c2cc(-c3cnc(N)c(-c4cc(-c5ccccc5)no4)n3)ccn2)CCCNC1 (centres unmarked) [Compound I-12, 3-[4-[5-amino-6-(3-phenylisoxazol-5-yl)pyrazin-2-yl]-2-pyridyl]piperidine-3-carbonitrile] | +++ (Compounds with a Ki value >5 nM but ≦1 nM are marked with “+++.”)
31 |  | N#CC1(c2cc(-c3cnc(N)c(-c4cc(-c5ccccc5F)no4)n3)ccn2)CCNCC1 [Compound I-28, 4-(4-(5-amino-6-(3-(2-fluorophenyl)isoxazol-5-yl)pyrazin-2-yl)pyridin-2-yl)piperidine-4-carbonitrile] | +++ (Compounds with a Ki value >5 nM but ≦1 nM are marked with “+++.”)
32 |  | N#CC1(c2cc(-c3cnc(N)c(-c4cc(-c5ccc(CO)cc5)no4)n3)ccn2)CCNCC1 [Compound I-31, 4-[4-[5-amino-6-[3-[4-(hydroxymethyl)phenyl]isoxazol-5-yl]pyrazin-2-yl]-2-pyridyl]piperidine-4-carbonitrile] | +++ (Compounds with a Ki value >5 nM but ≦1 nM are marked with “+++.”)
33 |  | CN(C)CCNc1ccc(-c2nnc(-c3nc(-c4ccnc(C(C)(C)C#N)c4)cnc3N)o2)cc1 [Compound I-114] | +++ (Compounds with a Ki value >5 nM but ≦1 nM are marked with “+++.”)
34 |  | CC(C)(C#N)c1cc(-c2cnc(N)c(-c3nnc(-c4ccc(C5CNC5)cc4)o3)n2)ccn1 [Compound I-80] | +++ (Compounds with a Ki value >5 nM but ≦1 nM are marked with “+++.”)
35 |  | N#CC1(c2cc(-c3cnc(N)c(-c4cc(-c5ccccc5O)no4)n3)ccn2)CCNCC1 [Compound I-26, 4-[4-[5-amino-6-[3-(2-hydroxyphenyl)isoxazol-5-yl]pyrazin-2-yl]-2-pyridyl]piperidine-4-carbonitrile] | +++ (Compounds with a Ki value >5 nM but ≦1 nM are marked with “+++.”)
36 |  | CN(C)C(=O)C(C)(C)c1cc(-c2cnc(N)c(-c3cc(-c4ccccc4)no3)n2)ccn1 [Compound I-39, 2-[4-[5-amino-6-(3-phenylisoxazol-5-yl)pyrazin-2-yl]-2-pyridyl]-N,N,2-trimethyl-propanamide] | +++ (Compounds with a Ki value >5 nM but ≦1 nM are marked with “+++.”)
37 |  | N#CC1(c2cc(-c3cnc(N)c(-c4nnc(-c5cccs5)o4)n3)ccn2)CCNCC1 [Compound I-101] | +++ (Compounds with a Ki value >5 nM but ≦1 nM are marked with “+++.”)
38 |  | CC(C)(C#N)c1cc(-c2cnc(N)c(-c3cc(-c4ccc([C@H]5COCCN5)cc4)no3)n2)ccn1 [Compound I-71] | +++ (Compounds with a Ki value >5 nM but ≦1 nM are marked with “+++.”)
